Measured values reported in ChEMBL document CHEMBL3390847, “Boronic acids in medicinal chemistry: anticancer, antibacterial and antiviral applications” (Medchemcomm, 2010).
≈ marks a conversion by molar mass, not a printed value.

Assays:
MCF7 = assay: Cytotoxicity against human MCF7 cells; type: functional, cell-based
[1] = Inhibition of tubulin polymerization in rat A10 cells assessed as microtubule loss; type: cell-based
B16 = assay: Cytotoxicity against mouse B16 cells; type: functional, cell-based
[2] = Cytotoxicity against human 1-87 cells; type: functional, cell-based
Staphylococcus aureus = assay: Antimicrobial activity against Staphylococcus aureus […] after 18 hrs by broth macrodilution assay; type: functional
[3] = system: Staphylococcus epidermidis; assay: Antimicrobial activity against Staphylococcus epidermidis ATCC 12228 after 18 hrs by broth macrodilution assay; type: functional; details: ATCC 12228, 18 h
Bacillus subtilis = assay: Antimicrobial activity against Bacillus subtilis ATCC 23857 after 18 hrs by broth macrodilution assay; type: functional; details: ATCC 23857, 18 h
Moraxella catarrhalis = assay: Antimicrobial activity against Moraxella catarrhalis after 18 hrs by broth macrodilution assay; type: functional
[4] = molecular target: T1, Proteasome Macropain subunit MB1 (Homo sapiens, UniProt P28074); assay: Inhibition of chymotrypsin-like activity of proteasome beta5 subunit (unknown origin)
T1 sequence (P28074 whole entry): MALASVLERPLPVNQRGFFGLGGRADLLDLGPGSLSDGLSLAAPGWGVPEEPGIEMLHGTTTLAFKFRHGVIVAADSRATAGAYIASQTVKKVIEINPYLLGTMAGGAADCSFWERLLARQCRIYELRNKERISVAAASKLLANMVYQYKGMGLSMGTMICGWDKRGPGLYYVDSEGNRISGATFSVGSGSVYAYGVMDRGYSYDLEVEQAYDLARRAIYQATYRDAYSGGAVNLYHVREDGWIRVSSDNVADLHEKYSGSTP

[5] = molecular target: T2, Proteasome subunit beta type-7 (Homo sapiens, UniProt Q99436); assay: Inhibition of trypsin-like activity of proteasome beta7 subunit (unknown origin)
T2 sequence (Q99436 whole entry): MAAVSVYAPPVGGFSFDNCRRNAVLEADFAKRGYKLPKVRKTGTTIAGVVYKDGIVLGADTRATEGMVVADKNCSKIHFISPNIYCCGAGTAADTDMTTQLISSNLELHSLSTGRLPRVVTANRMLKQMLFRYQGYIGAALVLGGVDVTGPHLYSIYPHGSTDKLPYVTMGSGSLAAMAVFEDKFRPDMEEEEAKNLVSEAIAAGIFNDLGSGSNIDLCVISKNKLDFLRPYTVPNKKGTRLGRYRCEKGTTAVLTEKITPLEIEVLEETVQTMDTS

[6] = Inhibition of post-glutamyl peptide hydrolysis proteasome subunit (unknown origin); design: species or system Homo sapiens
[7] = molecular target: T3, Epidermal growth factor receptor (Homo sapiens, UniProt P00533); assay: Inhibition of EGFR kinase (unknown origin) using poly(Glu:Tyr) as substrate at 1 uM
T3 sequence (P00533 whole entry): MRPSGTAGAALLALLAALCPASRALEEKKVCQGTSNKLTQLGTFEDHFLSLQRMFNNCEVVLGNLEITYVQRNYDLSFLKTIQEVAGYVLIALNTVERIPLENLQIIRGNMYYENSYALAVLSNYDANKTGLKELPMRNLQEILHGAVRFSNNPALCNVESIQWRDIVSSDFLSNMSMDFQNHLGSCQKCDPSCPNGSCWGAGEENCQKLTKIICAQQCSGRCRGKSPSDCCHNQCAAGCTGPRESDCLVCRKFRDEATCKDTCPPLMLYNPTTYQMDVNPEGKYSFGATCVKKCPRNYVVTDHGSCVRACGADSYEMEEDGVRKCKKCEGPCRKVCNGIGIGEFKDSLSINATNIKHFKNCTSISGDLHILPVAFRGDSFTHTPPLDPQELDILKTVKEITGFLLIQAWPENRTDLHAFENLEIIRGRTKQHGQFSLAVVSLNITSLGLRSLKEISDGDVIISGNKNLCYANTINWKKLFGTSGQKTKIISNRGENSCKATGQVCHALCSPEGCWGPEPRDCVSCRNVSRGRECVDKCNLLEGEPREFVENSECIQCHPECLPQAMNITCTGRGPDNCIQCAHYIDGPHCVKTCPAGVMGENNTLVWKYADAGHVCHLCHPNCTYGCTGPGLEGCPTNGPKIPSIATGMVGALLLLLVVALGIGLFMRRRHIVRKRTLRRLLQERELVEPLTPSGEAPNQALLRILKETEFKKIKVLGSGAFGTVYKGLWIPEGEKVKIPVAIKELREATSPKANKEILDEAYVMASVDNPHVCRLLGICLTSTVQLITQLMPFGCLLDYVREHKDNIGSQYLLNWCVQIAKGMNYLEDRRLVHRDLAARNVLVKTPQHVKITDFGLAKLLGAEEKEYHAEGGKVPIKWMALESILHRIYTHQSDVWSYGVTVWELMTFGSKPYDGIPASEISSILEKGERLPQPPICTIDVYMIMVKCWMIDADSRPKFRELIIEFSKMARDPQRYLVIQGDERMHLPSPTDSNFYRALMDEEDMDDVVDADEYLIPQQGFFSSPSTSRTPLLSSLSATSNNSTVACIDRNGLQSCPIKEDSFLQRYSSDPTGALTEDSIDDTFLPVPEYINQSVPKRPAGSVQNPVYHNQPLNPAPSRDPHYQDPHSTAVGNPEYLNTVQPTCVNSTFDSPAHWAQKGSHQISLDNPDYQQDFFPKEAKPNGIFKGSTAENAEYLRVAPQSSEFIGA

[8] = molecular target: T3, Epidermal growth factor receptor; assay: Inhibition of EGFR kinase (unknown origin) using poly(Glu:Tyr) as substrate
A-431 = assay: Cytotoxicity against human A431 cells; type: functional
[9] = Inhibition of AmpC beta-lactamase (unknown origin)
Tubulin [10] = assay: Inhibition of tubulin polymerization (unknown origin); type: protein-complex assay, Homo sapiens
[11] = Cytotoxicity against human MCF10A cells; type: cell-based; details: MCF-10A
[12] = Cytotoxicity against human MCF12A cells; type: cell-based; details: MCF-12A
Tubulin [13] = assay: Inhibition of tubulin polymerization (unknown origin) after 30 mins; type: protein-complex assay, Homo sapiens
Tubulin (Homo sapiens) = Tubulin (Homo sapiens) (UniProt P68371+Q9H4B7+P0DPH7+P68366+Q13509+Q71U36+P04350+Q3ZCM7+P07437+P68363+Q9BQE3+Q6PEY2+Q13885+Q9BVA1+Q9BUF5); assay: Displacement of [3H]colchicine from tubulin (unknown origin) at 5 uM; type: protein-complex assay
[14] = Inhibition of alpha-chymotrypsin (unknown origin); design: species or system Homo sapiens
[15] = Inhibition of AmpC beta-lactamase N289A mutant (unknown origin)
[16] = Inhibition of TEM-1 (unknown origin)
[17] = Inhibition of TEM-30 (unknown origin)
[18] = Inhibition of beta-lactamase SHV2 G238S mutant (unknown origin) expressed in Escherichia coli DH10B using nitrocefin as substrate
[19] = Inhibition of beta-lactamase SHV2 D104K mutant (unknown origin) expressed in Escherichia coli DH10B using nitrocefin as substrate
Bacillus anthracis = assay: Antimicrobial activity against Bacillus anthracis; type: functional
[20] = Inhibition of YFV recombinant NS3 protease expressed in Escherichia coli using Bz-nKRR-AMC as substrate after 30 mins; design: species or system Yellow fever virus
[21] = Inhibition of beta-lactamase SHV-1 (unknown origin) expressed in Escherichia coli DH10B using nitrocefin as substrate
[22] = Inhibition of beta-lactamase SHV-1 D104K/G238S mutant (unknown origin) expressed in Escherichia coli DH10B using nitrocefin as substrate

COc1ccc(/C=C\c2cc(OC)c(OC)c(OC)c2)cc1O [COMBRETASTATIN A4]
IC50 (MCF7): 0.032 µM | EC50 [1]: < 0.025 µM | IC50 (B16): 0.0046 µM | IC50 [2]: 0.0085 µM

C=CB(Oc1cccc2cccnc12)c1cccc(Cl)c1
MIC (Staphylococcus aureus): 2 µg/mL (≈ 6.81 µM) | MIC [3]: 1 µg/mL (≈ 3.41 µM) | MIC (Bacillus subtilis): 4 µg/mL (≈ 13.6 µM) | MIC (Moraxella catarrhalis): 4 µg/mL (≈ 13.6 µM)

CC(C)C[C@H](NC(=O)[C@H](Cc1ccc2ccccc2c1)NC(=O)[C@H](CC(C)C)NC(=O)c1cnccn1)B(O)O
IC50 [4]: 0.08 nM | IC50 [5]: > 0.02 µM | IC50 [6]: 0.00363 µM

OB(O)c1ccc(COc2ccc3ncnc(Nc4cccc(Cl)c4)c3c2)cc1
inhibition [7]: 55% | IC50 [8]: 0.85 µM | GI50 (A-431): 1.82 µM

O=C(Cc1cccs1)N[C@H](B(O)O)c1ccccc1
Ki [9]: 0.035 µM

Clc1ccc(C(Oc2cccc3cccnc23)c2ccc(Cl)cc2)cc1
MIC (Staphylococcus aureus): > 64 µg/mL | MIC [3]: > 64 µg/mL | MIC (Bacillus subtilis): > 64 µg/mL

COc1ccc(/C=C/c2cc(OC)c(OC)c(OC)c2)cc1B(O)O
IC50 (Tubulin [10]): 7.8 µM | IC50 (MCF7): 0.47 µM | EC50 [1]: > 15 µM

O=C(/C=C/c1ccc(I)cc1)c1ccc(OCB(O)O)cc1
IC50 [11]: 38 µM | IC50 [12]: 100 µM

COc1cc(/C=C\c2ccc(B(O)O)cc2)cc(OC)c1
IC50 (B16): 12 µM | IC50 [2]: 9.1 µM | IC50 (Tubulin [13]): 79 µM

COc1cc(C(=O)/C=C/c2cc(OC)c(OC)c(OC)c2)ccc1O
IC50 (Tubulin [10]): > 40 µM | IC50 (MCF7): > 2.5 µM | EC50 [1]: 18 µM

CC(=O)OCC1=C(C(=O)O)N2C(=O)[C@@H](NC(=O)Cc3cccs3)[C@H]2SC1 [CEPHALOTHIN]
Ki [9]: 0.32 µM

COc1cc(/C=C\c2cccc(B(O)O)c2)cc(OC)c1
IC50 (B16): 1.8 µM | IC50 [2]: 2 µM | IC50 (Tubulin [13]): > 100 µM

CC(C)C[C@H](NC(=O)[C@H](Cc1ccccc1)NC(=O)[C@H](Cc1ccc2ccccc2c1)NC(=O)c1cnccn1)B(O)O
IC50 [4]: 0.42 nM | IC50 [5]: > 0.02 µM | IC50 [6]: 0.00443 µM

COc1ccc(/C=C\c2cc(OC)c(OC)c(OC)c2)cc1B(O)O
IC50 (Tubulin [10]): 1.5 µM | IC50 (MCF7): 0.017 µM | EC50 [1]: 0.058 µM | inhibition (Tubulin (Homo sapiens)): 79% | IC50 (B16): 0.0063 µM | IC50 [2]: 0.013 µM | IC50 (Tubulin [13]): 22 µM

OCc1ccccc1 [BENZYL ALCOHOL]
Ki [14]: 10000 µM

CC(C)C[C@H](NC(=O)[C@H](Cc1ccc2ccccc2c1)NC(=O)[C@H](CC(C)C)NC(=O)c1cnccn1)B1O[C@@H]2[C@H]3CC[C@H](C3(C)C)[C@]2(C)O1
IC50 [4]: 0.38 nM | IC50 [5]: > 0.02 µM | IC50 [6]: 0.00391 µM

COc1ccc(/C=C\c2cc(OC)c(OC)c(OC)c2)cc1C(=O)O
IC50 (B16): 160 µM | IC50 [2]: 110 µM | IC50 (Tubulin [13]): > 100 µM

COc1cc(/C=C/C(=O)c2cc(OC)c(OC)c(OC)c2)ccc1O
IC50 (Tubulin [10]): 2.6 µM | IC50 (MCF7): 0.11 µM | EC50 [1]: 0.98 µM

COc1cc(/C=C\c2cccc(B(O)O)c2)cc(OC)c1OC
IC50 (B16): 0.49 µM | IC50 [2]: 2.1 µM | IC50 (Tubulin [13]): > 100 µM

O=C(O)/C=C/c1cccc([C@H](NC(=O)Cc2cccs2)B(O)O)c1
Ki [15]: 0.0028 µM | Ki [16]: 0.106 µM | Ki [17]: 3.8 µM

COc1cc(C(=O)/C=C/c2cc(OC)c(OC)c(OC)c2)ccc1B(O)O
IC50 (Tubulin [10]): > 40 µM | IC50 (MCF7): > 2.5 µM | EC50 [1]: > 15 µM

CO/N=C(/C(=O)NCB(O)O)c1csc(N)n1
Ki [18]: 6.8 µM | Ki [19]: 0.7 µM

O=C(Cc1cccs1)N[C@H](B(O)O)c1cccc(C(=O)O)c1
Ki [9]: 0.001 µM | Ki [15]: 0.017 µM | Ki [16]: 0.064 µM | Ki [17]: 7.8 µM

COc1cc(/C=C\c2ccc(OC)c(B(O)O)c2)cc(OC)c1
IC50 (B16): 0.019 µM | IC50 [2]: 0.028 µM | IC50 (Tubulin [13]): 21 µM

CC[C@H]1OC(=O)[C@H](C)[C@@H](O[C@H]2C[C@@](C)(OC)[C@@H](O)[C@H](C)O2)[C@H](C)[C@@H](O[C@@H]2O[C@H](C)C[C@H](N(C)C)[C@H]2O)[C@](C)(O)C[C@@H](C)C(=O)[C@H](C)[C@@H](O)[C@]1(C)O [ERYTHROMYCIN]
MIC90 (Bacillus anthracis): 1.5 µg/mL (≈ 2.04 µM)

CCCC[C@H](NC(=O)c1ccccc1)C(=O)N[C@@H](CCCCN)C(=O)N[C@@H](CCCCN)C(=O)N[C@@H](CCCNC(=N)N)B(O)O
Ki [20]: 0.05 µM

Clc1cccc(B(Oc2cccc3cccnc23)c2cccc(Cl)c2)c1
MIC (Staphylococcus aureus): 1 µg/mL (≈ 2.65 µM) | MIC [3]: 2 µg/mL (≈ 5.29 µM) | MIC (Bacillus subtilis): 2 µg/mL (≈ 5.29 µM) | MIC (Moraxella catarrhalis): 2 µg/mL (≈ 5.29 µM)

CC(C)C[C@H](NC(=O)[C@H](Cc1ccccc1)NC(=O)[C@H](Cc1ccccc1)NC(=O)c1cnccn1)B(O)O
IC50 [4]: 0.55 nM | IC50 [5]: > 0.02 µM | IC50 [6]: 0.0109 µM

CC(C)C[C@H](NC(=O)[C@H](Cc1ccccc1)NC(=O)[C@H](Cc1ccccc1)NC(=O)c1cnccn1)B1O[C@@H]2[C@H]3CC[C@H](C3(C)C)[C@]2(C)O1
IC50 [4]: 0.4 nM | IC50 [5]: > 0.02 µM | IC50 [6]: 0.00833 µM

CC1(C)[C@H]2CC3OB(COc4ccc5ncnc(Nc6cccc(Cl)c6)c5c4)O[C@@]3(C)[C@@H]1C2 (stereo partly specified)
inhibition [7]: 65% | IC50 [8]: 0.2 µM | GI50 (A-431): 0.54 µM

CC(=O)NCB(O)O [ACETAMIDOMETHYLBORONIC ACID]
Ki [21]: 8.9 µM | Ki [22]: 1.1 µM

Cc1ccc2cccc(OB(c3ccc(Cl)cc3)c3ccc(Cl)cc3)c2n1
MIC (Staphylococcus aureus): 16 µg/mL (≈ 40.8 µM) | MIC [3]: 8 µg/mL (≈ 20.4 µM)

CC(C)C[C@H](NC(=O)[C@H](Cc1ccccc1)NC(=O)[C@H](Cc1ccc2ccccc2c1)NC(=O)c1cnccn1)B1O[C@@H]2[C@H]3CC[C@H](C3(C)C)[C@]2(C)O1
IC50 [4]: 0.22 nM | IC50 [5]: > 0.02 µM | IC50 [6]: > 0.02 µM

COc1cc(/C=C/C(=O)c2cc(OC)c(OC)c(OC)c2)ccc1B(O)O
IC50 (Tubulin [10]): 31 µM | IC50 (MCF7): 0.9 µM | EC50 [1]: 16.5 µM

OB(O)/C=C/COc1ccc2ncnc(Nc3cccc(Cl)c3)c2c1
inhibition [7]: 63% | IC50 [8]: 0.27 µM | GI50 (A-431): 0.68 µM

C=CB(Oc1cccc2cccnc12)c1ccccc1
MIC (Staphylococcus aureus): 2 µg/mL (≈ 7.72 µM) | MIC [3]: 1 µg/mL (≈ 3.86 µM) | MIC (Moraxella catarrhalis): 2 µg/mL (≈ 7.72 µM)

Clc1cccc(B(Oc2ccc(Cl)c3cccnc23)c2cccc(Cl)c2)c1
MIC (Staphylococcus aureus): 0.5 µg/mL (≈ 1.21 µM) | MIC [3]: 0.25 µg/mL (≈ 0.606 µM) | MIC (Bacillus subtilis): 32 µg/mL (≈ 77.6 µM) | MIC (Moraxella catarrhalis): ≤ 0.125 µg/mL

CC(C)C[C@H](NC(=O)[C@H](Cc1ccc(O)cc1)NC(=O)[C@H](Cc1ccccc1)NC(=O)c1cnccn1)B1O[C@@H]2[C@H]3CC[C@H](C3(C)C)[C@]2(C)O1
IC50 [4]: 0.34 nM | IC50 [5]: > 0.02 µM | IC50 [6]: 0.00539 µM

COc1cc(/C=C\c2ccc(B(O)O)cc2)cc(OC)c1OC
IC50 (B16): 2.6 µM | IC50 [2]: 3.2 µM | IC50 (Tubulin [13]): > 100 µM

OB(O)c1ccccc1 [PHENYLBORONIC ACID]
Ki [14]: 196 µM

CC(C)C[C@H](NC(=O)[C@H](Cc1ccc(O)cc1)NC(=O)[C@H](Cc1ccccc1)NC(=O)c1cnccn1)B(O)O
IC50 [4]: 0.39 nM | IC50 [5]: > 0.02 µM | IC50 [6]: 0.00401 µM
